Test results: article PMC6001238, “Iterative Chemical Engineering of Vancomycin Leads to Novel Vancomycin Analogs With a High in Vitro Therapeutic Index” (Frontiers in Microbiology, 2018)
Values after ≈ are worked out from the molar mass of the structure shown.

Columns and labels:
E. faecalis VSE 1 = assay: MIC, broth microdilution, vancomycin-sensitive E. faecalis (VSE 1); type: cell-based, Enterococcus faecalis; conditions: for MIC: Enterococcus faecalis VSE 1 (vancomycin-sensitive), read-out: MIC; for MIC-fold improvement vs. vancomycin: VSE 1, ratio of MIC of vancomycin and MIC of analogue
Method in brief: (§1)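 MIC values come from broth microdilution run to CLSI susceptibility-testing standards. Ultrapure water and uninoculated broth served as controls. In one series, vancomycin at a final 10 μM was co-dosed with the analogue or comparator antibiotic.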

E. faecalis VRE 6 = assay: MIC, broth microdilution, vancomycin-resistant E. faecalis VRE 6 (VanA); type: cell-based, Enterococcus faecalis; conditions: for MIC: Enterococcus faecalis VRE 6 (vancomycin-resistant), read-out: MIC; for MIC-fold improvement vs. vancomycin: VRE 6, ratio of MIC of vancomycin and MIC of analogue
Method in brief: as §1

E. faecalis VRE 53 = assay: MIC, broth microdilution, vancomycin-resistant E. faecalis VRE 53 (VanA); type: cell-based, Enterococcus faecalis; conditions: for MIC: Enterococcus faecalis VRE 53 (vancomycin-resistant), read-out: MIC; for MIC-fold improvement vs. vancomycin: VRE 53, ratio of MIC of vancomycin and MIC of analogue
Method in brief: as §1

E. faecalis VRE 29 = assay: MIC, broth microdilution, vancomycin-resistant E. faecalis VRE 29 (VanA); type: cell-based, Enterococcus faecalis; conditions: for MIC: Enterococcus faecalis VRE 29 (vancomycin-resistant), read-out: MIC
Method in brief: as §1

E. faecalis VRE 37 = assay: MIC, broth microdilution, vancomycin-resistant E. faecalis VRE 37 (VanA); type: cell-based, Enterococcus faecalis; conditions: for MIC: Enterococcus faecalis VRE 37 (vancomycin-resistant), read-out: MIC; for MIC-fold improvement vs. vancomycin: VRE 37, ratio of MIC of vancomycin and MIC of analogue
Method in brief: as §1

[1] = tested on: Murine leukemia (L1210) cells; assay: Cytostatic activity, L1210 cell proliferation; type: cell-based; conditions: mean ± SD of three experiments; highest concentration tested 250 µM; 2 days; read-out: Toxicity (IC50) L1210
Method in brief: (§2)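 Test compounds, serially diluted, received an equal volume of cell suspension at 300,000–500,000 cells/mL. After 37°C incubation (2 days for L1210, 3 for CEM, 4 for HeLa), cells were enumerated by Coulter counting and 50%-inhibitory concentrations calculated per cell type.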

[2] = tested on: human T-lymphocyte (CEM) cells; assay: Cytostatic activity, CEM cell proliferation; type: cell-based; conditions: mean ± SD of three experiments; highest concentration tested 250 µM; 3 days; read-out: Toxicity (IC50) CEM
Method in brief: as §2

[3] = tested on: human cervix carcinoma (HeLa) cells; assay: Cytostatic activity, HeLa cell proliferation; type: cell-based; conditions: mean ± SD of three experiments; highest concentration tested 250 µM; 4 days; read-out: Toxicity (IC50) HeLa
Method in brief: as §2

[4] = tested on: L1210, CEM and HeLa cell lines; assay: Cytostatic activity, average or summary over L1210, CEM and HeLa; type: cell-based; conditions: average of L1210, CEM and HeLa; read-out: Toxicity (IC50) Average
Method in brief: as §2

[5] = tested on: S. aureus VSSA (ATCC 6538); assay: MIC, broth microdilution, vancomycin-sensitive S. aureus (VSSA/MSSA, ATCC 6538); type: cell-based, Staphylococcus aureus; conditions: for MIC: Staphylococcus aureus VSSA, read-out: MIC; for MIC-fold improvement vs. vancomycin: VSSA, ratio of MIC of vancomycin and MIC of analogue
Method in brief: as §1

S. aureus VISA/HIP5827 = assay: MIC, broth microdilution, vancomycin-intermediate S. aureus VISA HIP5827; type: cell-based, Staphylococcus aureus; conditions: for MIC: Staphylococcus aureus VISA/HIP5827, read-out: MIC; for MIC-fold improvement vs. vancomycin: VISA/HIP5827, ratio of MIC of vancomycin and MIC of analogue
Method in brief: as §1

S. aureus VRSA = assay: MIC, broth microdilution, vancomycin-resistant S. aureus (VRSA); type: cell-based, Staphylococcus aureus; conditions: for MIC: Staphylococcus aureus VRSA, read-out: MIC; for MIC-fold improvement vs. vancomycin: VRSA, ratio of MIC of vancomycin and MIC of analogue
Method in brief: as §1

MRSA KS2 = assay: MIC, broth microdilution, MRSA KS2; type: cell-based, Staphylococcus aureus; conditions: for MIC-fold improvement vs. vancomycin: MRSA KS2, ratio of MIC of vancomycin and MIC of analogue; for MIC: Staphylococcus aureus MRSA KS2, read-out: MIC
Method in brief: as §1

MRSA KS6 = assay: MIC, broth microdilution, MRSA KS6; type: cell-based, Staphylococcus aureus; conditions: for MIC-fold improvement vs. vancomycin: MRSA KS6, ratio of MIC of vancomycin and MIC of analogue; for MIC: Staphylococcus aureus MRSA KS6, read-out: MIC
Method in brief: as §1

MRSA KS89 = assay: MIC, broth microdilution, MRSA KS89; type: cell-based, Staphylococcus aureus; conditions: for MIC-fold improvement vs. vancomycin: MRSA KS8, ratio of MIC of vancomycin and MIC of analogue; for MIC: Staphylococcus aureus MRSA KS8, read-out: MIC
Method in brief: as §1

MRSA KS1 = assay: MIC, broth microdilution, MRSA KS1; type: cell-based, Staphylococcus aureus; conditions: for MIC-fold improvement vs. vancomycin: MRSA KS1, ratio of MIC of vancomycin and MIC of analogue; for MIC: Staphylococcus aureus MRSA KS1, read-out: MIC
Method in brief: as §1

CCc1ccc(NC(=O)CNC(=O)[C@H]2NC(=O)[C@H]3NC(=O)[C@H](NC(=O)[C@@H]4NC(=O)[C@H](CC(N)=O)NC(=O)[C@H](NC(=O)[C@@H](CC(C)C)NC)[C@H](O)c5ccc(c(Cl)c5)Oc5cc4cc(c5O[C@@H]4O[C@H](CO)[C@@H](O)[C@H](O)[C@H]4O[C@H]4C[C@](C)(N)[C@H](O)[C@H](C)O4)Oc4ccc(cc4Cl)[C@H]3O)c3ccc(O)c(c3)-c3c(O)cc(O)cc32)cc1 [Vanc-13]
MIC (E. faecalis VSE 1): 0.39 µM (≈ 0.628 µg/mL) | MIC-fold improvement vs. vancomycin (E. faecalis VSE 1): 4 | MIC (E. faecalis VRE 6): 12.5 µM (≈ 20.1 µg/mL) | MIC-fold improvement vs. vancomycin (E. faecalis VRE 6): 16 | MIC (E. faecalis VRE 53): 12.5 µM (≈ 20.1 µg/mL) | MIC-fold improvement vs. vancomycin (E. faecalis VRE 53): 32 | MIC (E. faecalis VRE 29): 12.5 µM (≈ 20.1 µg/mL) | MIC (E. faecalis VRE 37): 3.13 µM (≈ 5.04 µg/mL) | MIC-fold improvement vs. vancomycin (E. faecalis VRE 37): 256 | IC50 [1]: > 250 µM | IC50 [2]: > 250 µM | IC50 [3]: 149 ± 6 µM | IC50 [4]: 216 µM | MIC [5]: 0.39 µM (≈ 0.628 µg/mL) | MIC-fold improvement vs. vancomycin [5]: 2 | MIC (S. aureus VISA/HIP5827): 0.39 µM (≈ 0.628 µg/mL) | MIC-fold improvement vs. vancomycin (S. aureus VISA/HIP5827): 16 | MIC (S. aureus VRSA): 3.13 µM (≈ 5.04 µg/mL) | MIC-fold improvement vs. vancomycin (S. aureus VRSA): 32 | MIC-fold improvement vs. vancomycin (MRSA KS2): 4 | MIC (MRSA KS2): 0.20 µM (≈ 0.322 µg/mL) | MIC-fold improvement vs. vancomycin (MRSA KS6): 2 | MIC (MRSA KS6): 0.39 µM (≈ 0.628 µg/mL) | MIC-fold improvement vs. vancomycin (MRSA KS89): 2 | MIC (MRSA KS89): 0.39 µM (≈ 0.628 µg/mL) | MIC-fold improvement vs. vancomycin (MRSA KS1): 2 | MIC (MRSA KS1): 0.39 µM (≈ 0.628 µg/mL)

CN[C@H](CC(C)C)C(=O)N[C@H]1C(=O)N[C@@H](CC(N)=O)C(=O)N[C@H]2C(=O)N[C@H]3C(=O)N[C@H](C(=O)N[C@H](C(=O)NCC(=O)Nc4ccc(C)cc4C)c4cc(O)cc(O)c4-c4cc3ccc4O)[C@H](O)c3ccc(c(Cl)c3)Oc3cc2cc(c3O[C@@H]2O[C@H](CO)[C@@H](O)[C@H](O)[C@H]2O[C@H]2C[C@](C)(N)[C@H](O)[C@H](C)O2)Oc2ccc(cc2Cl)[C@H]1O [Vanc-15]
MIC (E. faecalis VSE 1): 1.56 µM (≈ 2.51 µg/mL) | MIC-fold improvement vs. vancomycin (E. faecalis VSE 1): 1 | MIC (E. faecalis VRE 6): 6.25 µM (≈ 10.1 µg/mL) | MIC-fold improvement vs. vancomycin (E. faecalis VRE 6): 32 | MIC (E. faecalis VRE 53): 25 µM (≈ 40.2 µg/mL) | MIC-fold improvement vs. vancomycin (E. faecalis VRE 53): 16 | MIC (E. faecalis VRE 29): 12.5 µM (≈ 20.1 µg/mL) | MIC-fold improvement vs. vancomycin (E. faecalis VRE 29; VRE 29, ratio of MIC of vancomycin and MIC of analogue): 32 | MIC (E. faecalis VRE 37): 25 µM (≈ 40.2 µg/mL) | MIC-fold improvement vs. vancomycin (E. faecalis VRE 37): 16 | IC50 [1]: > 250 µM | IC50 [2]: > 250 µM | IC50 [3]: 87 ± 12 µM | IC50 [4]: 196 µM | MIC [5]: 0.78 µM (≈ 1.26 µg/mL) | MIC-fold improvement vs. vancomycin [5]: 1 | MIC (S. aureus VISA/HIP5827): 1.56 µM (≈ 2.51 µg/mL) | MIC-fold improvement vs. vancomycin (S. aureus VISA/HIP5827): 4 | MIC (S. aureus VRSA): 12.5 µM (≈ 20.1 µg/mL) | MIC-fold improvement vs. vancomycin (S. aureus VRSA): 8 | MIC-fold improvement vs. vancomycin (MRSA KS2): 2 | MIC (MRSA KS2): 0.39 µM (≈ 0.628 µg/mL) | MIC-fold improvement vs. vancomycin (MRSA KS6): 1 | MIC (MRSA KS6): 0.78 µM (≈ 1.26 µg/mL) | MIC-fold improvement vs. vancomycin (MRSA KS89): 1 | MIC (MRSA KS89): 0.78 µM (≈ 1.26 µg/mL) | MIC-fold improvement vs. vancomycin (MRSA KS1): 1 | MIC (MRSA KS1): 0.78 µM (≈ 1.26 µg/mL)
